We go through four compounds from patent US20050258288A1, “High pressure media milling system and process of forming particles” (E. I. du Pont de Nemours and Company, priority 2003, published 2005).

A short description of series [1]: Surface area measurements (BET) of milled product. Format: physicochemical. The following applies: Example 4: piroxicam milled in supercritical CO2; for BET: Table 2. The text has this: The yield of the run with the depressurization was 10.7 grams, while in the case of the nozzle dispersion only 2.4 grams were recovered.
Series [2] can be described thus: Particle size of milled product by Malvern Mastersizer 2000 (laser diffraction). Format: physicochemical. The following applies: for X10 / X50 / X90 (90% cumulative undersize): Example 4: piroxicam milled in supercritical CO2, 120 min, by collection method.
The mark [3] stands for this setting: Example 2: ibuprofen + sodium lauryl sulfate milled in supercritical CO2, ceramic media, 60 min.
[4] abbreviates: Example 1: lactose + oleic acid milled in supercritical CO2, nylon media, 60 min.
The mark [5] stands for this setting: Example 3: lactose mono hydrate + Span85 milled in liquified HFC 134a, 1000 psi, 60 min.

Compound `CN1C(C(=O)Nc2ccccn2)=C(O)c2ccccc2S1(=O)=O` [Test 1, piroxicam] yielded a BET in series [1] of 11.8 sq. m/g. In addition, the “surface area (BET), specific surface area” value in series [1] (listed as product collected in the filter before depressurization) turned out to be 11.8 sq meter per gram. In series [2], the X10 was 3.00 micron, the X50 amounted to 5.70 micron and the “X90 (90% cumulative undersize)” value turned out to be 10.9 micron.
As to `CN1C(C(=O)Nc2ccccn2)=C(O)c2ccccc2S1(=O)=O` [Test 2, piroxicam], in series [1], the BET worked out at 9.4 sq. m/g. For the same compound, in series [1] (listed as nozzle dispersed material), the “surface area (BET), specific surface area” value was 9.7 sq meter per gram. Further, in series [2], the X10 amounted to 0.08 micron, the X50 was found to be 0.26 micron and the “X90 (90% cumulative undersize)” value came to 2.04 micron.
For `CC(C)Cc1ccc(C(C)C(=O)O)cc1` (stereo not shown) [ibuprofen], in series [2] (setting [3]), the 10% cumulative undersize was found to be 1.097 micron and the median size is 2.6 micron. In addition, the 90% cumulative undersize in series [2] (Example 2: ibuprofen + sodium lauryl sulfate milled in supercritical CO2, due to agglomeration) worked out at 219 microns.
Turning to `OC[C@H]1O[C@@H](O[C@H]2[C@H](O)[C@@H](O)C(O)O[C@@H]2CO)[C@H](O)[C@@H](O)[C@H]1O` (stereo partly shown) [lactose], in series [2] (setting [4]), the 10% cumulative undersize came out at 3.0 micron and the 90% cumulative undersize was found to be 796 micron. The median particle size in series [2] (Example 1: lactose + oleic acid milled in supercritical CO2, nylon media, 60 min, collected in high pressure filter) came out at 75.889 microns. Besides, in series [2] (setting [5]), the 10% cumulative undersize is given as 1.059 micron, the 90% cumulative undersize stood at 553 micron and the median particle size was 4.4 microns.
